The values that follow are results of earlier work, collected in US20230338288A1, “ASYMMETRIC CHARGED VESICLES AND METHODS OF PREPARING AND USE THEREOF” (The Research Foundation for the State University of New York, priority 2020, published 2023).

For the data set the following is noted: compared with Doxil (liposome-encapsulated Dox).

For `COc1cccc2c1C(=O)c1c(O)c3c(c(O)c1C2=O)C[C@@](O)(C(=O)CO)C[C@@H]3O[C@H]1C[C@H](N)[C@H](O)[C@H](C)O1` [Dox, Doxorubicin], the “dose that can be delivered without exhibiting cardiotoxicity, fold less than with Doxil” value is given as 10-50 fold.
